Test results: patent US20120059021A1, “COMPOSITIONS AND METHODS FOR TREATING CANCER AND METHODS FOR PREDICTING A RESPONSE TO SUCH TREATMENTS” (UNIVERSITY OF WASHINGTON, priority 2008, published 2012)

What was measured:
ppERK1/2 [1] = experiment: Immunoblot for dual-phosphorylated ERK1/2 in melanoma cells; type: cell-based, human
Source text: By way of non-limiting example, inhibition of ERK signaling can be measured by determining the level of dual-phosphorylated ERK1/2 (ppERK1/2) as described in detail elsewhere herein. In brief, the level of ppERK1/2 can be detected by immunoblot assay.

A375 = experiment: Flow cytometry for active (cleaved) caspase-3, A375; type: cell-based, human
Procedure: (§1) Flow cytometry for Active Caspase-3. Cells were seeded in a 6-well dish at a density to achieve 90-100% confluence at harvest. 24 hours after seeding, cells were treated with the indicated conditions for the indicated amount of time. At the time of collection, supernatants were collected and pooled with trypsinized cells. Cells were fixed with 4% paraformaldehyde and permeabilized according to vendor's protocol for Cleaved Caspase-3 (Asp175) Antibody (AlexaFluor 488 Conjugate) (catalog #9669) (Cell Signaling, Beverly Mass.). The antibody was used at a final dilution of 1:100. Flow was performed on a BD FACSCanto H, and data analysed with FlowJo 8.8.6 (Tree Star) software. Experiments were performed with biological triplicates and data are representative of at least three independent experiments. For experiments involving siRNAs, cells were reverse transfected with 20 nM siRNA in 6-well dishes in triplicate with RNAiMax according to manufacturer's protocol. 48 hours following transfection, cells were treated with the indicated conditions for 24 hours and then harvested for analysis. Cells were harvested, stained, and analyzed as described above.

COLO829 = experiment: Flow cytometry for active (cleaved) caspase-3, COLO829; type: cell-based, human; settings: WNT3A, 2 μM PLX4720, 24 hours
Procedure: as §1

Wnt/β-catenin signaling = experiment: WNT3A-mediated reporter activity in primary melanocytes; type: cell-based, human; settings: HEMs
ppERK1/2 [2] = experiment: Capillary-based isoelectric focusing of ppERK1/2 in fine needle aspirates of xenograft tumors; type: in vivo, mouse; settings: two hours after initial 50 mg/kg PLX4720 vs baseline
Procedure: FIG. 10A depicts a schematic representation of the capillary-based isoelectric focusing method of detecting levels of ppERK1/2 in fine needle aspirates of xenograft tumors from vehicle or PLX4720 treated mice (top panel). Fine needle aspiration procedures (FNA) were performed on xenograft tumors three days prior to treatment for baseline samples and 2 hours after the initial oral gavage treatment of 50 mg/kg PLX4720. FNAs were analyzed for ppERK1/2 and HSP70 for normalization by capillary-based isoelectric focusing on a Nanopro1000 instrument (Cell Biosciences)(bottom panel). […] FNAs of xenograft tumors three days before treatment (baseline) or two hours following the initial treatment of 50 mg/kg PLX4720 were analyzed for ppERK1/2 and normalized to levels of HSP70. Columns and error bars represent the mean and standard deviation, respectively, from three xenograft tumors. […] FIG. 10D is a graph of results from an experiment in which xenograft tumors from FIG. 2A were sectioned, stained with hematoxylin- and eosin, and analyzed for mitotic cells by microscopy under high-power as described elsewhere herein. […]
Xenograft assays. […] Tumor size was determined by caliper measurements of tumor length and width every 3 to 4 days. Tumor volume was then calculated using the following formula: volume=(width)^2×length/2. […]

CCCS(=O)(=O)Nc1ccc(F)c(C(=O)c2c[nH]c3ncc(Cl)cc23)c1F [PLX4720, N-[3-[(5-Chloro-1H-pyrrolo[2,3-b]pyridin-3-yl)carbonyl]-2,4-difluorophenyl]-1-propanesulfonamide]
dual-phosphorylated ERK1/2 (ppERK1/2) (ppERK1/2 [1]; A375): dose-dependent inhibition
time to inhibition of ppERK (ppERK1/2 [1]; A375, WNT3A and PLX4720 time course): ≤ 30 min
ERK1/2 phosphorylation (ppERK1/2 [1]; six established melanoma lines harboring the BRAF^V600E mutation): inhibition of ERK1/2 phosphorylation
increase in cleaved caspase-3 (A375; A375, WNT3A CM plus 2 μM PLX4720, 24 hours): 5-20 fold
cleaved caspase-3 (A375; A375, single agent alone, 24 hours): minimal increases in cleaved caspase-3
SYNERGISTIC APOPTOSIS WITH WNT AND PLX4720? (A375; A375, WNT3A, 2 μM PLX4720, 24 hours): YES
SYNERGISTIC APOPTOSIS WITH WNT AND PLX4720? (COLO829): YES
Wnt/β-catenin signaling (Wnt/β-catenin signaling): no detectable effect
ppERK2 in xenograft tumors (normalized to HSP70) (ppERK1/2 [2]): significantly less ppERK2
